Source: patent US20100151104A1, “Preservative System For Beverages Based On Combinations Of Trans-Cinnamic Acid, Lauric Arginate, And Dimethyl Dicarbonate” (priority 2008, published 2010)

Tests used:
Type in all cases: cell-based
Zygosaccharomyces bailii = experiment: Growth in 10% apple juice beverage with combinations of LAE & cinnamic acid; log (QA/Qa+QB/Qb) calculation; conditions: for amount of growth (normalized) to control: LAE 0 ppm
Description: (§1) Trans-cinnamic acid and lauric arginate were combined in the following beverage formulation: [table] […] The analysis of the interaction between lauric arginate and cinnamic acid can be refined through use of a mathematical method developed by Voorspuij and Nass (Arch. Int. pharmacodyn. 59:211 1957) (generally accepted among those practiced in the art.) Herein, the interactions between two active substances can be explored. First the quantity (Qa=Molar Cone) of compound A required for an end point (concentration required to stabilize product for 16 weeks) is established. Similarly, the quantity (Qb =Molar cone) of substance B required to establish the same endpoint is established. Thereafter, mixtures of A & B, in quantities QA & Qs are established that also define endpoints. […] If the sum of the ratios for a mixture of A & Bare=1, then the interaction is considered additive. […] Calculation of log (QA/Qa+QB/Qb) for LAE+trans Cinnamic Acid vs Zygosaccharomyces bailii

[1] = system: Brettanomyces bruxellensus; experiment: as above; conditions: for amount of growth (normalized) to control: LAE 0 ppm
Description: as §1, with “Brettanomyces bruzellensus” for “Zygosaccharomyces bailii”

Brettanomyces nardensis = experiment: as above; conditions: for amount of growth (normalized) to control: LAE 0 ppm
Description: as §1, with “Brettanomyces […]” for “Zygosaccharomyces bailii”

[2] = system: seven bio-indicator strains (Zygosaccharomyce baili, Brettanomyces species, Saccharomyces cerevisiae, Paecilomyces lilacinus, Zygosaccharomyces bisporus …); experiment: Example 2: growth/no growth of seven bio-indicator strains in 4% apple juice beverage, 16 weeks; conditions: FIGS. 1a, 1b; stand alone; pH 3.4; 16 weeks at 25° C.
Description: A single preparation of base beverage was employed to prepare each of five tests and consisted of 4% apple juice, 68 g sucrose/L, 52 g glucose/L, 2 g fructose/L prepared in batch water that was formulated to 90 ppm hardness with calcium chloride and magnesium chloride. […] The total combined quantity of sodium malate and malic acid was near constant, but the ratio of malic acid and malate varied slightly given the presence or absence of lauric arginate or cinnamic acid. Where required, lauric arginate or cinnamic acid was supplemented from separately prepared stock solutions. Each of the five tests employed the same bio-indicator organisms; Growth (+) versus no growth (-) established by visual inspection or spectrophotometrically. […] Y3, Zygosaccharomyce baili, Pepsi isolate 906; C-7UP, Brettanomyces species, Pepsi Isolate; Spore, an ascospore preparation of Saccharomyces cerevisiae 99 a Pepsi Isolate; […], Zygosaccharomyces baili, ATCC 60484; Spores, M7, Paecilomyces lilacinus ATCC 90461; […], Zygosaccharomyces bisporus ATCC 52407; Spores, M4, Talaromvces flavus var. flavus ATCC 10512. Samples were incubated for period of 16 weeks at 25° C. in vessels protective against evaporation.

[3] = stand alone, end point = concentration required to stabilize product for 16 weeks

## O=C(O)/C=C/c1ccccc1 [Cinnamic Acid, trans-cinnamic acid]
Zygosaccharomyces bailii; QLAE 0, QCA 300
  QA/Qa + QB/Qb: 1.00
  QLAE/QLAE*: 0.00
  QNaB/QNAB*: 1.00
  log (QA/Qa + QB/Qb): 0.0000
Zygosaccharomyces bailii; pH 3.0, Cinnamic Acid 10 ppm
  amount of growth (normalized) to control: 89%
Zygosaccharomyces bailii; pH 3.0, Cinnamic Acid 20 ppm
  amount of growth (normalized) to control: 82%
Zygosaccharomyces bailii; pH 3.0, Cinnamic Acid 50 ppm
  amount of growth (normalized) to control: 85%
Zygosaccharomyces bailii; pH 3.0, Cinnamic Acid 75 ppm
  amount of growth (normalized) to control: 45%
Zygosaccharomyces bailii; pH 3.0, Cinnamic Acid 100 ppm
  amount of growth (normalized) to control: 36%
Zygosaccharomyces bailii; pH 3.5, Cinnamic Acid 10 ppm
  amount of growth (normalized) to control: 97%
Zygosaccharomyces bailii; pH 3.5, Cinnamic Acid 20 ppm
  amount of growth (normalized) to control: 92%
Zygosaccharomyces bailii; pH 3.5, Cinnamic Acid 50 ppm
  amount of growth (normalized) to control: 76%
Zygosaccharomyces bailii; pH 3.5, Cinnamic Acid 75 ppm
  amount of growth (normalized) to control: 57%
Zygosaccharomyces bailii; pH 3.5, Cinnamic Acid 100 ppm
  amount of growth (normalized) to control: 48%
Zygosaccharomyces bailii; pH 4.0, Cinnamic Acid 10 ppm
  amount of growth (normalized) to control: 103%
Zygosaccharomyces bailii; pH 4.0, Cinnamic Acid 20 ppm
  amount of growth (normalized) to control: 94%
Zygosaccharomyces bailii; pH 4.0, Cinnamic Acid 50 ppm
  amount of growth (normalized) to control: 78%
Zygosaccharomyces bailii; pH 4.0, Cinnamic Acid 75 ppm
  amount of growth (normalized) to control: 74%
Zygosaccharomyces bailii; pH 4.0, Cinnamic Acid 100 ppm
  amount of growth (normalized) to control: 56%
Zygosaccharomyces bailii; [3]
  QCA* (quantity of cinnamic acid alone required for the end point): QCA* 300
[1]; QLAE 0, QCA 75
  QA/Qa + QB/Qb: 1.00
  QLAE/QLAE*: 0.00
  QNaB/QNAB*: 1.00
  log (QA/Qa + QB/Qb): 0.0000
[1]; pH 3.0, Cinnamic Acid 10 ppm
  amount of growth (normalized) to control: 85%
[1]; pH 3.0, Cinnamic Acid 20 ppm
  amount of growth (normalized) to control: 82%
[1]; pH 3.0, Cinnamic Acid 50 ppm
  amount of growth (normalized) to control: 4%
[1]; pH 3.0, Cinnamic Acid 75 ppm
  amount of growth (normalized) to control: 1%
[1]; pH 3.0, Cinnamic Acid 100 ppm
  amount of growth (normalized) to control: 1%
[1]; pH 3.5, Cinnamic Acid 10 ppm
  amount of growth (normalized) to control: 90%
[1]; pH 3.5, Cinnamic Acid 20 ppm
  amount of growth (normalized) to control: 89%
[1]; pH 3.5, Cinnamic Acid 50 ppm
  amount of growth (normalized) to control: 27%
[1]; pH 3.5, Cinnamic Acid 75 ppm
  amount of growth (normalized) to control: 0%
[1]; pH 3.5, Cinnamic Acid 100 ppm
  amount of growth (normalized) to control: 0%
[1]; pH 4.0, Cinnamic Acid 10 ppm
  amount of growth (normalized) to control: 99%
[1]; pH 4.0, Cinnamic Acid 20 ppm
  amount of growth (normalized) to control: 96%
[1]; pH 4.0, Cinnamic Acid 50 ppm
  amount of growth (normalized) to control: 65%
[1]; pH 4.0, Cinnamic Acid 75 ppm
  amount of growth (normalized) to control: 1%
[1]; pH 4.0, Cinnamic Acid 100 ppm
  amount of growth (normalized) to control: 1%
[1]; [3]
  QCA* (quantity of cinnamic acid alone required for the end point): QCA* 75
Brettanomyces nardensis; QLAE 0, QCA 50
  QA/Qa + QB/Qb: 1.00
  QLAE/QLAE*: 0.00
  QNaB/QNAB*: 1.00
  log (QA/Qa + QB/Qb): 0.0000
Brettanomyces nardensis; pH 3.0, Cinnamic Acid 10 ppm
  amount of growth (normalized) to control: 89%
Brettanomyces nardensis; pH 3.0, Cinnamic Acid 20 ppm
  amount of growth (normalized) to control: 67%
Brettanomyces nardensis; pH 3.0, Cinnamic Acid 50 ppm
  amount of growth (normalized) to control: 1%
Brettanomyces nardensis; pH 3.0, Cinnamic Acid 75 ppm
  amount of growth (normalized) to control: 0%
Brettanomyces nardensis; pH 3.0, Cinnamic Acid 100 ppm
  amount of growth (normalized) to control: 0%
Brettanomyces nardensis; pH 3.5, Cinnamic Acid 10 ppm
  amount of growth (normalized) to control: 88%
Brettanomyces nardensis; pH 3.5, Cinnamic Acid 20 ppm
  amount of growth (normalized) to control: 79%
Brettanomyces nardensis; pH 3.5, Cinnamic Acid 50 ppm
  amount of growth (normalized) to control: 2%
Brettanomyces nardensis; pH 3.5, Cinnamic Acid 75 ppm
  amount of growth (normalized) to control: 1%
Brettanomyces nardensis; pH 3.5, Cinnamic Acid 100 ppm
  amount of growth (normalized) to control: 1%
Brettanomyces nardensis; pH 4.0, Cinnamic Acid 10 ppm
  amount of growth (normalized) to control: 118%
Brettanomyces nardensis; pH 4.0, Cinnamic Acid 20 ppm
  amount of growth (normalized) to control: 101%
Brettanomyces nardensis; pH 4.0, Cinnamic Acid 50 ppm
  amount of growth (normalized) to control: 5%
Brettanomyces nardensis; pH 4.0, Cinnamic Acid 75 ppm
  amount of growth (normalized) to control: 2%
Brettanomyces nardensis; pH 4.0, Cinnamic Acid 100 ppm
  amount of growth (normalized) to control: 1%
Brettanomyces nardensis; [3]
  QCA* (quantity of cinnamic acid alone required for the end point): QCA* 50
[2]
  concentration required to inhibit all seven bio-indicator strains: 1.61 mM
